The structures appear in SMILES notation. Values joined by “and” are separate entries in the source; they are usually repeats but may differ in a detail not shown here. Equal entries are not always repeated.

The text below walks through data of BindingDB's records for patent WO2022098806 (MERCK SHARP & DOHME LLC, 2022).

The experiment concerns the target Mitogen-activated protein kinase kinase kinase kinase 1 (Homo sapiens, UniProt Q92918). Put plainly: HPK1-SLP76 TR-FRET ASSAY. (TR-FRET usually uses a lanthanide donor and a delayed reading to cut background.)

Mitogen-activated protein kinase kinase kinase kinase 1, sequence (Q92918 whole entry): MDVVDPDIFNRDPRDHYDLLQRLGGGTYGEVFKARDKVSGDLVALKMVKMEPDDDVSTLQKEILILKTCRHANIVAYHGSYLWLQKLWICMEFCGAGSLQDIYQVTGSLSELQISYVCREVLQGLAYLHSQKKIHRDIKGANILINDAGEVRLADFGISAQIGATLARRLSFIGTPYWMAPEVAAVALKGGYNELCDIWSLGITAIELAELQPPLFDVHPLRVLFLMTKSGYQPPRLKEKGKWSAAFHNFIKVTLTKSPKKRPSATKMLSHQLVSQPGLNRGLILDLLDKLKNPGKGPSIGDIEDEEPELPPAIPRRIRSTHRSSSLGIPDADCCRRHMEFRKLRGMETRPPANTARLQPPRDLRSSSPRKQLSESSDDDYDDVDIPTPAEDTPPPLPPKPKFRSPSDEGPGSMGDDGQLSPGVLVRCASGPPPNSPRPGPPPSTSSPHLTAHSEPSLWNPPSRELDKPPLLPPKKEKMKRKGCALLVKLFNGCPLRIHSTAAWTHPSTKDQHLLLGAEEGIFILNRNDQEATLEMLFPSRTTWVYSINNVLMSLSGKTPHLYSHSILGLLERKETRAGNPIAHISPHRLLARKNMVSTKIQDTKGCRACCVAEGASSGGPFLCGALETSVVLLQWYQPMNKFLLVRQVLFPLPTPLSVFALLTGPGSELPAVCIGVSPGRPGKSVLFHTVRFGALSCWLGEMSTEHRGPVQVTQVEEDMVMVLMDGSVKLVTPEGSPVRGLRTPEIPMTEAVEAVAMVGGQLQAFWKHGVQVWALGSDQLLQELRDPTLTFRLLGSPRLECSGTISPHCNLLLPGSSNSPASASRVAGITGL

`CNC(=O)c1ccc(Nc2ncc3c(N)c(F)c(-c4cnc5c(c4C)NCCO5)c(Cl)c3n2)c(OC)c1` [WO2022098806, Compound 2-98] had an IC50 of 6.73 nM.
`COc1cc2c(cc1Nc1ncc3c(N)c(F)c(-c4cnc5c(c4C)NCCO5)cc3n1)CN(C(C)C)CC2` [WO2022098806, Compound 2-72] gave an IC50 of 0.12 nM.
In turn, `COc1cc2c(cc1Nc1ncc3c(N)cc(Nc4cc(CO)ccn4)cc3n1)CN(C)CC2` [WO2022098806, Compound 3-80] showed an IC50 of 2.81 nM. This IC50 is about 23-fold higher than that of the compound before.
The figure for `COc1cc2c(cc1Nc1ncc3ccc(Nc4cccc(CO)c4)cc3n1)CN(C)CC2` [WO2022098806, Compound 3-31] is 29 nM; for `COc1cc2c(cc1Nc1ncc3ccc(NCC4CCC(=O)N4)cc3n1)CN(C)CC2` (configuration not stated) [WO2022098806, Compound 3-45] it is 292 nM; for `COc1cc([C@@H]2CCN(C)C2=O)ccc1Nc1ncc2c(N)c(F)c(-c3cnc4c(c3C)NCCO4)cc2n1` [WO2022098806, Compound 2-54] it is 0.08 nM.
Next, `COc1cc2c(cc1Nc1ncc3c(N)c(F)c(-c4cnc5c(c4C)NCCO5)c(Cl)c3n1)CN(C)CC21CC1` [WO2022098806, Compound 2-169]: 0.06 nM.
Compound `Cc1c(-c2cc3nc(Nc4ccc5c(c4)CN(CC(C)(C)O)C5=O)ncc3c(N)c2F)cnc2c1NCCO2` [WO2022098806, Compound 2-42] came in with an IC50 of 0.15 nM.
The figure for `CCc1ccc(Nc2ncc3c(N)c(F)c(-c4cnc5c(c4C)NCCO5)cc3n2)cn1` [WO2022098806, Compound 2-173] is 0.13 nM; for `Cc1c(-c2cc3nc(Nc4ccc5c(c4)CC(C)(C)N(C)C5)ncc3c(N)c2F)cnc2c1NCCO2` [WO2022098806, Compound 2-126] it is 0.09 nM.
Next, `COc1ccccc1Nc1ncc2c(N)c(F)c(-c3cnc4c(c3C)NCCO4)cc2n1` [WO2022098806, Compound 2-71]: 0.25 nM; `Cc1c(-c2cc3nc(Nc4ccc(CS(C)(=O)=O)cc4)ncc3cc2F)cnc2c1NCCO2` [WO2022098806, Compound 1-115]: 0.05 nM.
Next, `CNC(=O)[C@@H]1CCc2cc(Nc3ncc4cc(F)c(-c5cnc6c(c5C)NCCO6)cc4n3)ccc21` [WO2022098806, Compound 1-118]: 0.04 nM; `Cc1c(-c2cc3nc(Nc4ccc5c(c4)CN(C)C(C)(C)C5)ncc3c(N)c2F)cnc2c1NCCO2` [WO2022098806, Compound 2-128]: 0.03 nM.
For `COc1cc2c(cc1Nc1ncc3ccc(NC4CCCC(O)C4)cc3n1)CN(C)CC2` (configuration not stated) [WO2022098806, Compound 3-39], the IC50 was determined as 228 nM.
`CC(=O)NCc1ccc(Nc2ncc3c(N)c(F)c(-c4cnc5c(c4C)NCCO5)cc3n2)cc1` [WO2022098806, Compound 2-30]: the IC50 is 0.08 nM.
Consider `CC[C@@H]1COC(=O)N1c1ccc2cnc(Nc3cc4c(cc3OC)CCN(C)C4)nc2c1` [WO2022098806, Compound 3-13], for which the IC50 came out at 1.05 nM.
The figure for `COC1CC(NC(=O)c2ccc(Nc3ncc4c(N)c(F)c(-c5cnc6c(c5C)NCCO6)cc4n3)cc2)C1` (configuration not stated) [WO2022098806, Compound 2-58] is 0.08 nM.
The figure for `Cc1c(-c2cc3nc(Nc4ccc(CS(=O)(=O)CC(F)(F)F)cc4)ncc3c(N)c2F)cnc2c1NCCO2` [WO2022098806, Compound 2-149] is 0.19 nM; for `Cc1c(-c2cc3nc(Nc4ccc([C@@H](C)S(C)(=O)=O)cc4)ncc3c(N)c2F)cnc2c1NCCO2` [WO2022098806, Compound 2-63] it is 0.09 nM.
With `Cc1c(-c2cc3nc(Nc4ccc5c(c4)CN(C)CCC5)ncc3c(N)c2F)cnc2c1NCCO2` [WO2022098806, Compound 2-117], 0.04 nM corresponded to half-maximal inhibition (IC50).
Next, `Cc1c(-c2cc3nc(Nc4ccc5c(c4)CN(C)CC5(C)C)ncc3c(N)c2F)cnc2c1NCCO2` [WO2022098806, Compound 2-150]: 0.06 nM; `COc1cc2c(cc1Nc1ncc3ccc(N4CC5(CCCNCC5)OC4=O)cc3n1)CN(C)CC2` (configuration not stated) [WO2022098806, Compound 3-5]: 205 nM and 93 nM.
The figure for `COc1cc([C@H]2CCN(C)C2=O)ccc1Nc1ncc2c(N)c(F)c(-c3cnc4c(c3C)NCCO4)cc2n1` [WO2022098806, Compound 2-57] is 0.91 nM; for `Cc1c(-c2c(F)c(N)c3cnc(Nc4ccc5c(c4)CN(C)CC54CC4)nc3c2Cl)cnc2c1NCCO2` [WO2022098806, Compound 2-108] it is 0.01 nM.
The figure for `Cc1c(-c2cc3nc(Nc4ccc([C@H]5CCN(C)C5=O)cc4)ncc3c(N)c2F)cnc2c1NCCO2` [WO2022098806, Compound 2-147] is 0.08 nM; for `Cc1c(-c2cc3nc(Nc4ccc(CS(C)(=O)=O)cc4)ncc3c(N)c2F)cnc2c1NCC(C)(C)O2` [WO2022098806, Compound 2-165] it is 0.1 nM; for `Cc1c(-c2c(F)c(N)c3cnc(Nc4ccc5c(c4)CN(C(C)C)CC5)nc3c2Cl)cnc2c1NCCO2` [WO2022098806, Compound 2-102] it is 0.08 nM and 0.2 nM and 0.04 nM.
`Cc1c(-c2cc3nc(Nc4ccc(CS(C)(=O)=O)cc4F)ncc3c(N)c2F)cnc2c1NCCO2` [WO2022098806, Compound 2-155]: the IC50 was 0.06 nM.
In turn, `COc1cc2c(cc1Nc1ncc3c(N)c(F)c(-c4cnc5c(c4C)NCCO5)c(Cl)c3n1)CN(C(C)C)CC2` [WO2022098806, Compound 2-106] gave an IC50 of 0.07 nM.
The figure for `CNC(=O)C1(c2ccc(Nc3ncc4c(N)c(F)c(-c5cnc6c(c5C)NCCO6)cc4n3)cc2)CCC1` [WO2022098806, Compound 2-82] is 0.03 nM; for `COc1cc2c(cc1Nc1ncc3ccc(-c4cnn(C(F)F)c4)cc3n1)CN(C)CC2` [WO2022098806, Compound 1-26] it is 11 nM; for `Cc1c(-c2cc3nc(Nc4ccc([C@@H]5CCN(C)C5=O)cc4)ncc3c(N)c2F)cnc2c1NCCO2` [WO2022098806, Compound 2-146] it is 0.05 nM.
The figure for `Cc1c(-c2cc3nc(Nc4ccc5c(c4)CN(C(C)C)CC5)ncc3c(N)c2F)cnc2c1NCC(C)O2` (configuration not stated) [WO2022098806, Compound 2-145] is 0.05 nM; for `CCCC(=O)Nc1cncc(-c2ccc3cnc(Nc4cc5c(cc4OC)CCNC5)nc3c2)c1` [WO2022098806, Compound 1-52] it is 11 nM; for `COc1cc2c(cc1Nc1ncc3ccc(Nc4cccc(CO)n4)cc3n1)CN(C)CC2` [WO2022098806, Compound 3-29] it is 21 nM.
The figure for `COc1cc2c(cc1Nc1ncc3ccc(N4CC(CO)OC4=O)cc3n1)CN(C)CC2` (configuration not stated) [WO2022098806, Compound 3-4] is 9.36 nM; for `CCS(=O)(=O)Cc1ccc(Nc2ncc3c(N)c(F)c(-c4cnc5c(c4C)NCCO5)cc3n2)c(OC)c1` [WO2022098806, Compound 2-89] it is 0.01 nM; for `COc1cc2c(cc1Nc1ncc3ccc(N4CC5CCS(=O)(=O)C5C4)cc3n1)CN(C)CC2` (configuration not stated) [WO2022098806, Compound 3-60] it is 807 nM.
`Cc1c(-c2c(F)c(N)c3cnc(Nc4ccc5c(c4)CN(C)CC54CC4)nc3c2C#N)cnc2c1NCCO2` [WO2022098806, Compound 2-109] registered an IC50 of 0.05 nM.
The figure for `Cc1c(-c2cc3nc(Nc4ccc5c(c4)CN(C)CC5)ncc3c(N)c2F)cnc2nc[nH]c12` [WO2022098806, Compound 2-162] is 0.13 nM; for `COc1ncccc1Nc1ncc2c(N)c(F)c(-c3cnc4c(c3C)NCCO4)cc2n1` [WO2022098806, Compound 2-27] it is 0.12 nM.

Usually IC50 stands for the concentration needed to halve the response being measured.
